IC50 data for 29 compounds are collected here from US11208400B2, “Substituted 6-(1H-pyrazol-1-yl)pyrimidin-4-amine derivatives and uses thereof” (Bayer Aktiengesellschaft, priority 2016, dated 2021).

For this assay, the target named is T1, human Npt2a (Homo sapiens, UniProt Q06495).
T1 construct: expressed in transfected cells
T1 sequence (Q06495 1-639): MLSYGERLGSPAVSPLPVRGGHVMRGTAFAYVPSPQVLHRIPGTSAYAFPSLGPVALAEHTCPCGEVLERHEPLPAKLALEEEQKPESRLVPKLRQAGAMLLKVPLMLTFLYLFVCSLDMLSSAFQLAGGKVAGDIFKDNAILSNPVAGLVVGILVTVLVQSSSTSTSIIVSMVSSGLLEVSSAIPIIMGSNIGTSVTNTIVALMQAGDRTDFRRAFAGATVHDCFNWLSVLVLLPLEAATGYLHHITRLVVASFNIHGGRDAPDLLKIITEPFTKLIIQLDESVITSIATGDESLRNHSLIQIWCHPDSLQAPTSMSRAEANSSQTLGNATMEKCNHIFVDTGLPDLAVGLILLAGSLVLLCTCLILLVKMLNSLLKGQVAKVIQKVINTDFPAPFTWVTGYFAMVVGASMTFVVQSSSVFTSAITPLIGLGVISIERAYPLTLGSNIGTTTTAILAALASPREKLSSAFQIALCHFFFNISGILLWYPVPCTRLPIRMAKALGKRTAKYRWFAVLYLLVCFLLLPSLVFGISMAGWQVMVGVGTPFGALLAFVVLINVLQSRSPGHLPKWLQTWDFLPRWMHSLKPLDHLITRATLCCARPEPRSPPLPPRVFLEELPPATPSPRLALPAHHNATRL
The assay is described as follows: Npt2a activity cell based assay, membrane potential dye, CHO T-REx hNpt2a cells. To be noted: doxycycline-induced, depolarization by sodium phosphate influx, average or median values if tested more than once. In a few lines:
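Cells were doxycycline-induced CHO T-REx hNpt2a, dye-loaded and pretreated 5 min at RT with 1 nM–50 μM compound in Na-free pH 7.4 buffer. IC50 was fit to the post/pre-trigger fluorescence ratio.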
On to `Cc1nn(-c2cc(Nc3nn(C)c(-c4ccc(F)cc4F)c3Cl)ncn2)c(C)c1Cl` [Example 56, N-[4-chloro-5-(2,4-difluorophenyl)-1-methyl-1H-pyrazol-3-yl]-6-(4-chloro-3,5-dimethyl-1H-pyrazol-1-yl)pyrimidin-4-amine], for which the IC50 (as a rule, the concentration that gives 50% inhibition) amounted to 20.5 nM.
Then `Cc1nn(-c2cc(Nc3nn(C)c(-c4ccc(F)cc4F)c3Cl)ncn2)c2ccccc12` [Example 57, N-[4-chloro-5-(2,4-difluorophenyl)-1-methyl-1H-pyrazol-3-yl]-6-(3-methyl-1H-indazol-1-yl)pyrimidin-4-amine], with 117 nM.
The result for `CCc1c(Nc2cc(-n3nc(C)c(CO)c3C)ncn2)nn(C)c1-c1ccc(F)cc1` [Example 58, [1-(6-{[4-ethyl-5-(4-fluorophenyl)-1-methyl-1H-pyrazol-3-yl]amino}pyrimidin-4-yl)-3,5-dimethyl-1H-pyrazol-4-yl]methanol] reads 760 nM; that for `CCOC(=O)c1c(C)nn(-c2cc(Nc3c(C)c(-c4ccc(F)cc4)nn3C)ncn2)c1C` [Example 59, ethyl 1-(6-{[3-(4-fluorophenyl)-1,4-dimethyl-1H-pyrazol-5-yl]amino}pyrimidin-4-yl)-3,5-dimethyl-1H-pyrazole-4-carboxylate], 12 nM; that for `CCOC(=O)c1c(C)nn(-c2cc(Nc3n[nH]c(-c4ccc(F)cc4)c3C)ncn2)c1C` [Example 60, ethyl 1-(6-{[5-(4-fluorophenyl)-4-methyl-1H-pyrazol-3-yl]amino}pyrimidin-4-yl)-3,5-dimethyl-1H-pyrazole-4-carboxylate], 43 nM.
Then `CCOC(=O)c1c(C)nn(-c2cc(Nc3nn(C)c(-c4ccc(F)cc4)c3C)ncn2)c1C` [Example 61, ethyl 1-(6-{[5-(4-fluorophenyl)-1,4-dimethyl-1H-pyrazol-3-yl]amino}pyrimidin-4-yl)-3,5-dimethyl-1H-pyrazole-4-carboxylate], with 4.4 nM; and `Cc1cc(C)n(-c2cc(Nc3nn(C)c(-c4ccccc4)c3C)ncn2)n1` [Example 62, N-(1,4-dimethyl-5-phenyl-1H-pyrazol-3-yl)-6-(3,5-dimethyl-1H-pyrazol-1-yl)pyrimidin-4-amine], with 135 nM.
Turning to `Cc1nn(-c2cc(Nc3c(C)nn(-c4ccc(F)cc4)c3C)ncn2)c(C)c1Cl` [Example 63, 6-(4-chloro-3,5-dimethyl-1H-pyrazol-1-yl)-N-[1-(4-fluorophenyl)-3,5-dimethyl-1H-pyrazol-4-yl]pyrimidin-4-amine], the midpoint of inhibition, the IC50, lay at 7.65 nM.
On to `CCc1c(Nc2cc(-n3nc(C)cc3C(F)F)ncn2)nn(C)c1-c1ccc(F)cc1` [Example 64, 6-[5-(difluoromethyl)-3-methyl-1H-pyrazol-1-yl]-N-[4-ethyl-5-(4-fluorophenyl)-1-methyl-1H-pyrazol-3-yl]pyrimidin-4-amine], for which the IC50 was 6.25 nM.
The result for `Cc1cc(C(F)F)n(-c2cc(Nc3n[nH]c(-c4ccc(F)cc4)c3C)ncn2)n1` [Example 66, 6-[5-(difluoromethyl)-3-methyl-1H-pyrazol-1-yl]-N-[5-(4-fluorophenyl)-4-methyl-1H-pyrazol-3-yl]pyrimidin-4-amine] reads 87 nM; that for `Cc1nn(-c2cc(Nc3nn(C)c(-c4ccc(F)cc4)c3C)ncn2)c(C)c1Cl` [Example 67, 6-(4-chloro-3,5-dimethyl-1H-pyrazol-1-yl)-N-[5-(4-fluorophenyl)-1,4-dimethyl-1H-pyrazol-3-yl]pyrimidin-4-amine], 3.45 nM; that for `Cc1nn(-c2cc(Nc3c(C)c(-c4ccc(F)cc4)nn3C)ncn2)c(C)c1Cl` [Example 68, 6-(4-chloro-3,5-dimethyl-1H-pyrazol-1-yl)-N-[3-(4-fluorophenyl)-1,4-dimethyl-1H-pyrazol-5-yl]pyrimidin-4-amine], 31.5 nM.
The result for `Cc1cc(C(F)F)n(-c2cc(Nc3nn(C)c(-c4ccc(F)cc4)c3C)ncn2)n1` [Example 69, 6-[5-(difluoromethyl)-3-methyl-1H-pyrazol-1-yl]-N-[5-(4-fluorophenyl)-1,4-dimethyl-1H-pyrazol-3-yl]pyrimidin-4-amine] reads 8.4 nM; that for `Cc1cc(C(F)F)n(-c2cc(Nc3c(C)c(-c4ccc(F)cc4)nn3C)ncn2)n1` [Example 70, 6-[5-(difluoromethyl)-3-methyl-1H-pyrazol-1-yl]-N-[3-(4-fluorophenyl)-1,4-dimethyl-1H-pyrazol-5-yl]pyrimidin-4-amine], 36 nM.
Then `Cc1cc(C)n(-c2cc(Nc3c(C)c(-c4ccc(F)cc4)nn3C)ncn2)n1` [Example 71, 6-(3,5-dimethyl-1H-pyrazol-1-yl)-N-[3-(4-fluorophenyl)-1,4-dimethyl-1H-pyrazol-5-yl]pyrimidin-4-amine], with 50 nM; and `Cc1nn(-c2cc(Nc3n[nH]c(-c4ccc(F)cc4)c3C)ncn2)c(C)c1Cl` [Example 72, 6-(4-chloro-3,5-dimethyl-1H-pyrazol-1-yl)-N-[5-(4-fluorophenyl)-4-methyl-1H-pyrazol-3-yl]pyrimidin-4-amine], with 15.4 nM.
On to `Cc1cc(C)n(-c2cc(Nc3nn(C)c(-c4ccc(F)cc4)c3C)ncn2)n1` [Example 73, 6-(3,5-dimethyl-1H-pyrazol-1-yl)-N-[5-(4-fluorophenyl)-1,4-dimethyl-1H-pyrazol-3-yl]pyrimidin-4-amine], for which the IC50 was found to be 15.7 nM.
Turning to `Cc1cc(C)n(-c2cc(Nc3c(C)c(-c4ccccc4)nn3C)ncn2)n1` [Example 75, N-(1,4-dimethyl-3-phenyl-1H-pyrazol-5-yl)-6-(3,5-dimethyl-1H-pyrazol-1-yl)pyrimidin-4-amine], half-maximal inhibition (IC50) required 42 nM.
Then `Cc1cc(C)n(-c2cc(Nc3cn(-c4ccc(F)cc4)nc3C)ncn2)n1` [Example 77, 6-(3,5-dimethyl-1H-pyrazol-1-yl)-N-[1-(4-fluorophenyl)-3-methyl-1H-pyrazol-4-yl]pyrimidin-4-amine], with 2230 nM.
The result for `Cc1cc(C)n(-c2cc(Nc3c(C)nn(-c4ccc(F)cc4)c3C)ncn2)n1` [Example 78, 6-(3,5-dimethyl-1H-pyrazol-1-yl)-N-[1-(4-fluorophenyl)-3,5-dimethyl-1H-pyrazol-4-yl]pyrimidin-4-amine] reads 247 nM; that for `CCOC(=O)c1c(C)nn(-c2cc(Nc3c(Cl)c(-c4ccccc4)nn3C)ncn2)c1C` [Example 79, ethyl 1-{6-[(4-chloro-1-methyl-3-phenyl-1H-pyrazol-5-yl)amino]pyrimidin-4-yl}-3,5-dimethyl-1H-pyrazole-4-carboxylate], 31 nM.
The result for `Cc1nn(-c2cc(Nc3c(Cl)c(-c4ccccc4)nn3C)ncn2)c(C)c1Cl` [Example 80, 6-(4-chloro-3,5-dimethyl-1H-pyrazol-1-yl)-N-(4-chloro-1-methyl-3-phenyl-1H-pyrazol-5-yl)pyrimidin-4-amine] reads 44 nM.
Turning to `CCOC(=O)c1c(C)nn(-c2cc(Nc3nn(C)c(-c4ccccc4)c3Cl)ncn2)c1C` [Example 81, ethyl 1-{6-[(4-chloro-1-methyl-5-phenyl-1H-pyrazol-3-yl)amino]pyrimidin-4-yl}-3,5-dimethyl-1H-pyrazole-4-carboxylate], it took 11 nM to reach half-maximal inhibition (IC50).
The result for `CC(=O)c1c(Nc2cc(-n3nc(C)cc3C)ncn2)nn(C)c1-c1ccc(F)cc1` [Example 82, 1-[3-{[6-(3,5-dimethyl-1H-pyrazol-1-yl)pyrimidin-4-yl]amino}-5-(4-fluorophenyl)-1-methyl-1H-pyrazol-4-yl]ethanone] reads 1500 nM; that for `CCOC(=O)c1cc(C)n(-c2cc(Nc3nn(C)c(-c4ccc(F)cc4)c3CC)ncn2)n1` [Example 83, ethyl 1-(6-{[4-ethyl-5-(4-fluorophenyl)-1-methyl-1H-pyrazol-3-yl]amino}pyrimidin-4-yl)-5-methyl-1H-pyrazole-3-carboxylate], 1300 nM.
Then `Cc1nn(-c2cc(Nc3nn(C)c(-c4ccccc4)c3C)ncn2)c(C)c1Cl` [Example 84, 6-(4-chloro-3,5-dimethyl-1H-pyrazol-yl)-N-(1,4-dimethyl-5-phenyl-1H-pyrazol-3-yl)pyrimidin-4-amine], with 75.5 nM; and `CCc1c(Nc2cc(-n3nc(C)c(C(=O)N4CC(F)(C(F)(F)F)C4)c3C)ncn2)nn(C)c1-c1ccc(F)cc1` [Example 85, [1-(6-{[4-ethyl-5-(4-fluorophenyl)-1-methyl-1H-pyrazol-3-yl]amino}pyrimidin-4-yl)-3,5-dimethyl-1H-pyrazol-4-yl][3-fluoro-3-(trifluoromethyl)azetidin-1-yl]methanone], with 130 nM; and `Cc1nn(-c2cc(Nc3c(C)c(-c4ccccc4)nn3C)ncn2)c(C)c1Cl` [Example 86, 6-(4-chloro-3,5-dimethyl-1H-pyrazol-1-yl)-N-(1,4-dimethyl-3-phenyl-1H-pyrazol-5-yl)pyrimidin-4-amine], with 50 nM.
Then `CCOC(=O)Cc1c(C)nn(-c2cc(Nc3nn(C)c(-c4ccc(F)cc4)c3CC)ncn2)c1C` [Example 87, ethyl [1-(6-{[4-ethyl-5-(4-fluorophenyl)-1-methyl-1H-pyrazol-3-yl]amino}pyrimidin-4-yl)-3,5-dimethyl-1H-pyrazol-4-yl]acetate], with 32 nM.
